The text below walks through data of US5328985A, “Recombinant streptavidin-protein chimeras useful for conjugation of molecules in the immune system” (priority 1991, dated 1994).

The subject of this experiment is recombinant streptavidin-Protein A chimeric protein encoded in pTSAPA-2 (streptavidin residues 16-133 fused to Protein A regions E and D; 31.4 kDa subunit …). The experiment can be described thus: Determination of biotin-binding ability by gel filtration with D-[carbonyl-14C]biotin. Particulars: purified chimeric protein, subunit 31.4 kDa; room temperature, TBS; Sephadex G-25 gel filtration. The procedure: Biotin-binding ability was determined by gel filtration according to Methods Enzymol., 18A:424 (1970) using a Sephadex G-25 desalting column (PD-10; 0.76×5.0 cm, Pharmacia-LKB) and D-[carbonyl-^14 C]biotin (52 mCi/mmol, Amersham). The binding of the chimeric protein to biotin was done at room temperature in TBS containing 0.02% NAN3, and the same solution was used as the eluent.
On the technique in general: In gel filtration, larger molecules generally elute earlier.

For the molecule `O=C(O)CCCC[C@@H]1SC[C@@H]2NC(=O)N[C@@H]21` [biotin, D-biotin], the “biotin-binding ability: molecules of biotin bound per subunit” value is “more than 0.96 molecules of biotin per subunit”.
